How the values were obtained:
[1] = Insolubility of the deposit in water in the Petri dish (Example 3); details: general statement in the description
[2] = dispersion contacted on a film of APTES

Molecule | water solubility of the material resulting from condensation [1] | flocculation of the dispersion [2]
CCO[Si](CCCN)(OCC)OCC [APTES, γ-aminopropyl triethoxysilane] | high water solubility | –
Zinc Pyrithione | – | almost immediate flocculation

Source: patent US20130034509A1, “COSMETIC TREATMENT METHOD INVOLVING A COMPOUND CAPABLE OF CONDENSING IN SITU” (L'OREAL, priority 2009, published 2013)
